Data from ChEMBL document CHEMBL3763148, “Synthesis, structure elucidation, DNA-PK and PI3K and anti-cancer activity of 8- and 6-aryl-substituted-1-3-benzoxazines” (Eur J Med Chem, 2016).

Legend:
[1] = biological target: T1, Phosphatidylinositol 4,5-bisphosphate 3-kinase catalytic subunit beta isoform (Homo sapiens, UniProt P42338); test: Inhibition of PI3Kbeta (unknown origin) at 10 uM incubated for 60 mins by kinase-glo luminescence assay
[2] = biological target: Phosphatidylinositol 4,5-bisphosphate 3-kinase catalytic subunit gamma isoform (Homo sapiens) (UniProt P48736); test: Inhibition of PI3Kgamma (unknown origin) at 10 uM incubated for 60 mins by kinase-glo luminescence assay
[3] = biological target: T2, Phosphatidylinositol 4,5-bisphosphate 3-kinase catalytic subunit delta isoform (Homo sapiens) (UniProt O00329); test: Inhibition of PI3Kdelta (unknown origin) at 10 uM incubated for 60 mins by kinase-glo luminescence assay
T2 sequence (whole entry): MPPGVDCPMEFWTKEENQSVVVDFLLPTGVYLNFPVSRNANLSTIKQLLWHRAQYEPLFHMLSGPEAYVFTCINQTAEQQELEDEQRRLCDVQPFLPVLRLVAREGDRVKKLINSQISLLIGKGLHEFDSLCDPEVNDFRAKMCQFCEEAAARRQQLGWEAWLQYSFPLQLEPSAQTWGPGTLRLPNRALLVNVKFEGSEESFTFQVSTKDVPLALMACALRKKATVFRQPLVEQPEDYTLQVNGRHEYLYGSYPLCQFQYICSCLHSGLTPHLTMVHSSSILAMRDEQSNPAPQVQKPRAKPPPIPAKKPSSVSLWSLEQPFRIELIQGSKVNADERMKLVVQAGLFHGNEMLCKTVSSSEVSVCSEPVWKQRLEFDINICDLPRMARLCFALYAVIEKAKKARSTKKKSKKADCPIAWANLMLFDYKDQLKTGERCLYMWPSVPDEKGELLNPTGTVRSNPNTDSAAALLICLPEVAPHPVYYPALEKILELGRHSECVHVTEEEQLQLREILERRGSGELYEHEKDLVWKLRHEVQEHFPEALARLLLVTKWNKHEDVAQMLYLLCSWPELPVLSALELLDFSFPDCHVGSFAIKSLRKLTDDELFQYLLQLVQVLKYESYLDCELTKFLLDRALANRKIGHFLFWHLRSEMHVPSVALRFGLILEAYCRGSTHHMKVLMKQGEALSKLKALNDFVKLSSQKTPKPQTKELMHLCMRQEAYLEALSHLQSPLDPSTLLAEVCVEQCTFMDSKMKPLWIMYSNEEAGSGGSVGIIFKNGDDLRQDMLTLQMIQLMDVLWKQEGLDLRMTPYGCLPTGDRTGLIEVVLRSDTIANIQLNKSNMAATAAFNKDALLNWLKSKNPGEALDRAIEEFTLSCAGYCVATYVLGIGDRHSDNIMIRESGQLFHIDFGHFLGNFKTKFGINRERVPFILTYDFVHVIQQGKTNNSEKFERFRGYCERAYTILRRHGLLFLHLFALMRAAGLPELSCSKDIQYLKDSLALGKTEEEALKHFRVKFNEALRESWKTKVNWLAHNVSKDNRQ

[4] = biological target: T3, Phosphatidylinositol 4,5-bisphosphate 3-kinase catalytic subunit alpha isoform (Homo sapiens, UniProt P42336); test: Inhibition of PI3Kalpha (unknown origin) at 10 uM incubated for 60 mins by kinase-glo luminescence assay
[5] = biological target: T4, DNA-dependent protein kinase catalytic subunit (Homo sapiens, UniProt P78527); test: Inhibition of human DNA-PK using EPPLSQEAFADLWKK as substrate at 10 uM by HTRF assay
[6] = biological target: T3, Phosphatidylinositol 4,5-bisphosphate 3-kinase catalytic subunit alpha isoform; test: Inhibition of PI3Kalpha (unknown origin) incubated for 60 mins by kinase-glo luminescence assay
[7] = biological target: T4, DNA-dependent protein kinase catalytic subunit; test: Inhibition of human DNA-PK using EPPLSQEAFADLWKK as substrate by HTRF assay
[8] = biological target: T5, Phosphatidylinositol 4,5-bisphosphate 3-kinase catalytic subunit delta isoform (Homo sapiens, UniProt O00329); test: Inhibition of PI3Kdelta (unknown origin) incubated for 60 mins by kinase-glo luminescence assay
T5 sequence (O00329 whole entry): T2 sequence (whole entry)

[9] = biological target: T1, Phosphatidylinositol 4,5-bisphosphate 3-kinase catalytic subunit beta isoform; test: Inhibition of PI3Kbeta (unknown origin) incubated for 60 mins by kinase-glo luminescence assay

T3 sequence (P42336 whole entry, canonical isoform): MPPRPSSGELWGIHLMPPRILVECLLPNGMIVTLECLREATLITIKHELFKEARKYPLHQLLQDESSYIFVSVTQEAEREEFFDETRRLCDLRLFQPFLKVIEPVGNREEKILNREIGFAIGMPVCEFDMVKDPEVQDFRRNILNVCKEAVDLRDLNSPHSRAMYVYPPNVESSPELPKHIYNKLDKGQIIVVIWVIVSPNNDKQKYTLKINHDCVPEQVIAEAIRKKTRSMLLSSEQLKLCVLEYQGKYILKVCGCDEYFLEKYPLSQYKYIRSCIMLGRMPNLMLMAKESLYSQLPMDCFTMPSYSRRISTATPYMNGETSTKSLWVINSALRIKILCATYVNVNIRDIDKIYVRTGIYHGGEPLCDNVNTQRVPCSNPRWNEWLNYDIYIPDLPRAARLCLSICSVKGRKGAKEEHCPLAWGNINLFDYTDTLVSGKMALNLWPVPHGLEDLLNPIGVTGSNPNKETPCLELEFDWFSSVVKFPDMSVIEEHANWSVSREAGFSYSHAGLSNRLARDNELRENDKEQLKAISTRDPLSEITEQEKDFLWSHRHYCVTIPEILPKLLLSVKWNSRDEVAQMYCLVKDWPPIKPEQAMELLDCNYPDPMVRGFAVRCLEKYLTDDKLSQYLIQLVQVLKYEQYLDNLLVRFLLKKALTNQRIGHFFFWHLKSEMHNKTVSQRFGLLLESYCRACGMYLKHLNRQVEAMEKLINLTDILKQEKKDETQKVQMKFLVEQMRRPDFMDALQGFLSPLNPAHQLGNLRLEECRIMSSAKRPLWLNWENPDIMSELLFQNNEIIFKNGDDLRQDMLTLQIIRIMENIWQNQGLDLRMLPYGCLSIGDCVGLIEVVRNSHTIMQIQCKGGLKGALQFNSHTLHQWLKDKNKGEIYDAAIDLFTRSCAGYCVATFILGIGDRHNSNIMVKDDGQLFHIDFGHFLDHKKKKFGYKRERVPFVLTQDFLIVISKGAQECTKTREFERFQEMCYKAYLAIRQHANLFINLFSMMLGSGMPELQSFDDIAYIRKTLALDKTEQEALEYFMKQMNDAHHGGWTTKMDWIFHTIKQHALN
T4 sequence (P78527 whole entry, canonical isoform): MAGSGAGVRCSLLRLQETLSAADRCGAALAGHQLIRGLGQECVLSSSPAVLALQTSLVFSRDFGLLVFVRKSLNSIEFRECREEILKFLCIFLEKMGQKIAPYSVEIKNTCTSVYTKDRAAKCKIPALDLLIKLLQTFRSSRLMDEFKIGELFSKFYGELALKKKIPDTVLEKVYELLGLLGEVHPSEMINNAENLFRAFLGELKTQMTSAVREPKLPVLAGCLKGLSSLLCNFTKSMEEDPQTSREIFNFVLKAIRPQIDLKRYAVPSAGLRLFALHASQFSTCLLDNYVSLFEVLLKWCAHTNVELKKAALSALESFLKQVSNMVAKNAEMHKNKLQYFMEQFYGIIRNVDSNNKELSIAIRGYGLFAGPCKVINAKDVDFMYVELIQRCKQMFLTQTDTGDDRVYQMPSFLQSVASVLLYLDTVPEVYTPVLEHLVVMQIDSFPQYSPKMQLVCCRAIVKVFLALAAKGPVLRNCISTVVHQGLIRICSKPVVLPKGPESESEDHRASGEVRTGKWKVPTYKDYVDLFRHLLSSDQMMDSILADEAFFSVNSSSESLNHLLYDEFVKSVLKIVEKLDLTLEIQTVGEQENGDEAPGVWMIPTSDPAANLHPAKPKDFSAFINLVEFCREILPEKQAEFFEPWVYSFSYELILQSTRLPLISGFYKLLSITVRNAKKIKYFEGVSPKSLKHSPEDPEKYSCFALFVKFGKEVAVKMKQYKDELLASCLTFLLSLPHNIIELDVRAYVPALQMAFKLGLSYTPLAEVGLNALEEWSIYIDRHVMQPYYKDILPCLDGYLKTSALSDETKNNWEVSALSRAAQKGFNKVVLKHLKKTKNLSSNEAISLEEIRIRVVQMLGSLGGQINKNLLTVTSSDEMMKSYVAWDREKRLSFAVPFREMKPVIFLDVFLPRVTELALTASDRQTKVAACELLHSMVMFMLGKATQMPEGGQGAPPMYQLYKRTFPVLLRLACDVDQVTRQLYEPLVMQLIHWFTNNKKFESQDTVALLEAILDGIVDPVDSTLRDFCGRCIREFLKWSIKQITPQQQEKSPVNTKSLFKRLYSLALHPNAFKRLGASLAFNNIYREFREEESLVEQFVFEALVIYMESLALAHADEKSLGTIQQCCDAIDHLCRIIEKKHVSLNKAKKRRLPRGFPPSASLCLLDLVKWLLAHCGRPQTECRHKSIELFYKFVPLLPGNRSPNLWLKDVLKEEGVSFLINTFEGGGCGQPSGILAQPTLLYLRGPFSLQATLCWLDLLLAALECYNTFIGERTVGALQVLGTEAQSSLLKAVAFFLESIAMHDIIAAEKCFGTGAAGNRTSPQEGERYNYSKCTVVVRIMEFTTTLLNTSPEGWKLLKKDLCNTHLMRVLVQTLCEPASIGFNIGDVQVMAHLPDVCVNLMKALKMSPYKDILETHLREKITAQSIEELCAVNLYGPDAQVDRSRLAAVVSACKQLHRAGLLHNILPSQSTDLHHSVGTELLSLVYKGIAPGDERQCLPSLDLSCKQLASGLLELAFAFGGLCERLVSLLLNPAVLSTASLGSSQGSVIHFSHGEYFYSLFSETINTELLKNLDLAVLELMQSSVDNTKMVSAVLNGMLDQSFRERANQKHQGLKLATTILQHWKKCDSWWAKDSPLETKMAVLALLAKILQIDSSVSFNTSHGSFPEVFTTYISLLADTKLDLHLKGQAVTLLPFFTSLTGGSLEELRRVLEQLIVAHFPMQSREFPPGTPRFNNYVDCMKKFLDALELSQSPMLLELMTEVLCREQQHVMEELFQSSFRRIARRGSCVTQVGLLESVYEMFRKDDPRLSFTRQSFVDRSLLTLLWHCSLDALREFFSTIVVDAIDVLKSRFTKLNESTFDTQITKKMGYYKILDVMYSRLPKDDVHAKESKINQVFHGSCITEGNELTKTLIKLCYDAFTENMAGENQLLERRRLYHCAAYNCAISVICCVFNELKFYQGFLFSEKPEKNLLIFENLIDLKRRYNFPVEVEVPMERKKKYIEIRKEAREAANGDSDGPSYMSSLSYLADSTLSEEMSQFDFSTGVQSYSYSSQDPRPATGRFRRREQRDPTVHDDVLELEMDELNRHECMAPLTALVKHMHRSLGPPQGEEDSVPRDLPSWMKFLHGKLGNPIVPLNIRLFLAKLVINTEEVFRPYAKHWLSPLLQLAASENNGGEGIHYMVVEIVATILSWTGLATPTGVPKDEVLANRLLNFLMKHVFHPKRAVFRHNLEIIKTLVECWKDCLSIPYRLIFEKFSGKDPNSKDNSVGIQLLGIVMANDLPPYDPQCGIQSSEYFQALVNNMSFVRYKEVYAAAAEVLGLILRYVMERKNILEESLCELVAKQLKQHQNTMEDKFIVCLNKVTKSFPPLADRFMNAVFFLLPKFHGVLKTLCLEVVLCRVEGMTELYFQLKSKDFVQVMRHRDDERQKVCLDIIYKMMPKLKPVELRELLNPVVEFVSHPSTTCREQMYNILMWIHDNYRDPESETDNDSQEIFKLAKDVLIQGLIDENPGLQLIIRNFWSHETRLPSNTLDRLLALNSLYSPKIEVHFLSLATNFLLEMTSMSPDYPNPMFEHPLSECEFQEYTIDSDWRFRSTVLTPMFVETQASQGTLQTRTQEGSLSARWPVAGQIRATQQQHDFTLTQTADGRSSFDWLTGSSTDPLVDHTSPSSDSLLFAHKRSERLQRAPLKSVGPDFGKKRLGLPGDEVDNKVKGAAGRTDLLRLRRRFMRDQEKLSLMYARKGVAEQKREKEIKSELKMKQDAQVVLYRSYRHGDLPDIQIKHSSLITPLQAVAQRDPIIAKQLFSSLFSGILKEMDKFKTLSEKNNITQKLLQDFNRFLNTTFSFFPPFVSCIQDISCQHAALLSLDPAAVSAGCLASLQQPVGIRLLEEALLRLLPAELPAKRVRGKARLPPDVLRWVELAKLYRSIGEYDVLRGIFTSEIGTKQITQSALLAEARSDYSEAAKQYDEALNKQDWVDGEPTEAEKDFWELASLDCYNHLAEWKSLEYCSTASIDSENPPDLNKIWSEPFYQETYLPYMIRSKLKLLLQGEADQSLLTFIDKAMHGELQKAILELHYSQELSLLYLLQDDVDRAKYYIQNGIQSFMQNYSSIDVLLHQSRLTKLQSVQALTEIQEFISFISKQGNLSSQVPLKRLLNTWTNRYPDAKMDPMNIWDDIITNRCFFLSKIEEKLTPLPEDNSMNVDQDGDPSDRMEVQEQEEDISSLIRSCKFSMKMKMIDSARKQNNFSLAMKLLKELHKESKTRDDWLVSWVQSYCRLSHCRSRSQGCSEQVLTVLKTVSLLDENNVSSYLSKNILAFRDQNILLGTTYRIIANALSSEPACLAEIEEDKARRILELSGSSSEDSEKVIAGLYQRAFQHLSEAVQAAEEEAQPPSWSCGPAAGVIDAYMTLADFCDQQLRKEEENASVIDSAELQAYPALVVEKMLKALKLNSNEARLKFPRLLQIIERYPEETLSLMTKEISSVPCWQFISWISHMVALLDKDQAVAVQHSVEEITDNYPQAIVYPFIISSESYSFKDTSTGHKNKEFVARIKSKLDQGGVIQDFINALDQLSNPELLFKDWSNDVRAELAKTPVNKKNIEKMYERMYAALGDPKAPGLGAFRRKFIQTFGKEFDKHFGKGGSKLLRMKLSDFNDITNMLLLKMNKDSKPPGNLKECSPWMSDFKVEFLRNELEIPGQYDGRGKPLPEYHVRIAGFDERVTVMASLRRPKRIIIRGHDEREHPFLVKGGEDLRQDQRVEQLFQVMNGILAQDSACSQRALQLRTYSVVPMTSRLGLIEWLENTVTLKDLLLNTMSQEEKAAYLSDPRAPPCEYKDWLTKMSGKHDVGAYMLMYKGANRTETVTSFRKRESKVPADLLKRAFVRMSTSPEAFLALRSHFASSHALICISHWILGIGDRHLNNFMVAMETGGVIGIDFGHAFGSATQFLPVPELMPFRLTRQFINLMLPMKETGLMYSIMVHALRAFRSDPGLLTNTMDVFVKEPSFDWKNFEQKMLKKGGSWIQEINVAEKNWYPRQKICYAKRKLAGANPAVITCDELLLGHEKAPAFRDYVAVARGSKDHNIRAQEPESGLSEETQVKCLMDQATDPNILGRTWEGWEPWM

Row | inhibition [1] [%] | inhibition [2] [%] | inhibition [3] [%] | inhibition [4] [%] | inhibition [5] [%] | IC50 [6] [µM] | IC50 [7] [µM] | IC50 [8] [µM] | IC50 [9] [µM] | Structure (SMILES)
1 | 0 | 4 | 0 | 10 | 4 |  |  |  |  | O=c1nc(N2CCOCC2)oc2ccc(-c3cccc4ccccc34)cc12
2 | 0 | 0 | 0 | 7 | 11 |  |  |  |  | O=c1nc(N2CCOCC2)oc2ccc(-c3ccc(CO)cc3)cc12
3 | 20 | 3 | 0 | 3 | 0 |  |  |  |  | O=c1nc(N2CCOCC2)oc2ccc(-c3cc4ccccc4s3)cc12
4 | 34 | 16 |  |  |  | > 10 | 10.9 | 10 |  | O=c1nc(N2CCOCC2)oc2c(-c3ccc(Cl)cc3)cccc12
5 | 6 | 0 | 0 | 5 | 12 |  |  |  |  | O=c1nc(N2CCOCC2)oc2ccc(-c3cccc4c3oc3ccccc34)cc12
6 | 36 | 0 | 3 | 11 | 6 |  |  |  |  | O=c1nc(N2CCOCC2)oc2ccc(-c3cccnc3)cc12
7 | 13 | 0 | 0 | 11 | 7 |  |  |  |  | O=c1nc(N2CCOCC2)oc2ccc(-c3cccc(-c4ccccc4)c3)cc12
8 |  | 31 |  |  |  | 10 | 15.7 | 9 | 3.2 | O=c1nc(N2CCOCC2)oc2c(-c3ccc(CO)cc3)cccc12
9 |  | 0 | 4 | 13 |  |  | 63.5 |  | 10 | Nc1cccc(-c2cccc3c(=O)nc(N4CCOCC4)oc23)c1
10 | 0 | 0 |  | 16 |  |  | 12.3 | 2.6 |  | COc1ccc(-c2cc(Cl)cc3c(=O)nc(N4CCOCC4)oc23)cc1
11 | 29 | 4 | 0 | 3 | 23 |  |  |  |  | O=c1nc(N2CCOCC2)oc2ccc(/C=C/c3ccccc3)cc12
12 |  |  |  |  | 8 |  |  |  |  | NC(=O)c1ccc(-c2ccc3oc(N4CCOCC4)nc(=O)c3c2)cc1
13 |  |  |  |  | 21 |  |  |  |  | O=c1nc(N2CCOCC2)oc2ccc(-c3ccsc3)cc12
14 |  |  |  |  | 7 |  |  |  |  | Nc1cccc(-c2ccc3oc(N4CCOCC4)nc(=O)c3c2)c1
15 | 0 | 0 |  | 42 |  |  | 6.05 | 10 |  | O=c1nc(N2CCOCC2)oc2c(-c3cccs3)cc(Cl)cc12
16 |  |  |  |  | 24 |  |  |  |  | O=c1nc(N2CCOCC2)oc2ccc(-c3cccs3)cc12
17 | 15 | 14 | 16 | 35 |  |  | 5.77 |  |  | O=c1nc(N2CCOCC2)oc2c(-c3cc4ccccc4s3)cc(Cl)cc12
18 | 0 | 9 | 0 | 2 | 1 |  |  |  |  | O=c1nc(N2CCOCC2)oc2ccc(-c3ccccc3)cc12
19 |  | 24 | 37 | 26 |  |  | 78.4 |  | > 10 | O=c1nc(N2CCOCC2)oc2c(-c3cccnc3)cccc12
20 |  |  |  |  |  |  | 0.3 | 0.95 |  | O=c1cc(N2CCOCC2)oc2c(-c3ccccc3)cccc12 [LY-294002]
21 | 0 | 10 | 0 | 10 | 7 |  |  |  |  | O=c1nc(N2CCOCC2)oc2ccc(-c3ccc(Cl)cc3)cc12
22 | 15 | 17 |  |  |  | 10 | 2.12 | 3.7 |  | O=c1nc(N2CCOCC2)oc2c(-c3cc4ccccc4s3)cccc12
23 | 59 | 1 | 36 | 0 |  |  | 0.564 |  |  | O=c1nc(N2CCOCC2)oc2c(-c3cccc4c3sc3ccccc34)cc(Cl)cc12
24 | 17 | 0 | 0 | 7 | 8 |  |  |  |  | COc1ccc(-c2ccc3oc(N4CCOCC4)nc(=O)c3c2)cc1
